Results taken from patent US9693987B2, “Methods for treating cancers using oral formulations of cytidine analogs” (CELGENE CORPORATION, priority 2011, dated 2017).

How the values were obtained:
higher-risk MDS = details: Phase III study, administered subcutaneously, subjects with higher-risk MDS; cited from earlier work
LINE-1 methylation = assay: DNA methylation (LINE-1) in PBMC DNAs from patients; type: in vivo, human; details: patients of Example 1, Arm C, 200 mg oral AZA; Days 1, 8 and 15 of 21-day cycle
Description: (§1) In one embodiment, PBMC DNA was used for assessing changes in DNA methylation, using assays such as LINE-1 methylation, %5mdC mass spec, Infinium® Methylation27 Array, and Infinium® Methylation450 Array. In one study, DNA methylation (LINE-1) in PBMC DNAs from patients in clinical studies described in Example 1, dosed with 200 mg oral AZA alone or in combination with CDBCA or ABX, was measured on Days 1, 8, and 15 of 21-day cycle. […] In one study, %5mdC in PBMC DNAs from patients in clinical studies described in Example 1, dosed with 200 mg oral AZA alone or in combination with CDBCA or ABX, was measured on Days 1, 8, and 15 of 21-day cycle. In one study, methylation levels were measured on Days 1, 8, and 15 of 21-day cycle using Infinium® Methylation27 Array (patients dosed with 200 mg oral AZA alone or in combination with CDBCA or ABX) and density profiles of average methylation levels were analyzed. […] In another study, methylation levels were measured using Infinium® Methylation450 Array (patients dosed with 300 mg oral AZA alone or in combination with CDBCA or ABX) and density profiles of average methylation levels were analyzed, as well as % change of hypermethylated loci (beta>0.7) upon treatment.

DNMT1 [1] = assay: DNMT1 western blotting, MDA-MB-231 cells in vitro; type: cell-based
Description: (§2) The effects of AZA dose and schedule (short-term vs. extended) on pharmacodynamic markers such as DNMT1 depletion, DNA methylation, and DNA damage were evaluated in MDA-MB-231 breast cancer cells in vitro and in vivo. For in vitro experiments, MDA-MB-231 cells were treated daily with 0.1 or 0.3 μM AZA for up to 12 days, and harvested at various times during treatment, as well as up to 12 days following treatment. For in vivo studies, MDA-MB-231 tumor-bearing mice were dosed (ip) with 1 or 3 mg/kg AZA daily for 3, 7, 14, 21, or 28 days and tumors were harvested during and at several time points after the dosing period. DNA and cell lysates were prepared (from cell pellets or xenograft tumors) for DNA methylation analysis (LINE-1 or EpiTech Methyl qPCR assay) and DNMT1/γH2AX western blotting, respectively.

DNMT1 [2] = assay: DNMT1 western blotting, MDA-MB-231 xenograft tumors; type: in vivo, mice
Description: as §2

[3] = PK exposure of AZA in patients; type: in vivo; details: human, plasma; oral AZA, patients of the clinical study; read-out: AUCinf of patients in whom decreases in DNA methylation were observed
Description: For oral azacitidine, CBDCA, and ABX (administered alone and in combination), the following plasma PK parameters are assessed: (1) maximum observed concentration in plasma (Cmax); (2) area under the concentration-time curve (AUC); (3) time to maximum concentration (tmax); (4) terminal half-life (t1/2); (5) apparent total body clearance (CL/F); and (6) apparent volume of distribution (Vz/F). To evaluate the PD effects of oral azacitidine in blood, plasma, and tumor tissue, the following endpoints are collected: (1) change from baseline (Cycle 1 Day 1 pre-dose) in DNA methylation (global and gene-specific assays) in whole blood and tumor tissue (as available in Part 1); (2) reduction from baseline (Cycle 1 Day 1 predose) in DNMT1 protein levels in tumor tissue (as available in Part 1).

Nasopharyngeal cancer = assay: Clinical study Part 1, oral azacitidine alone or with CBDCA or ABX, tumor response; type: in vivo, human; details: Part 1 Arm C
Description: The study was an open-label, 3-arm, multi-center, dose-escalation study of oral azacitidine in combination with either CBDCA (Arm A), ABX (Arm B), or as a single agent (Arm C) in subjects with relapsed or refractory solid tumors (Part 1). Subjects were assigned to each study Arm at the discretion of the investigator. A minimum of 6 subjects were assigned to each study Arm when a dose level (DL) became open for enrollment. If one (1) or zero (0) out of six (6) subjects in a DL experienced dose limiting toxicity (DLT), the dose of oral azacitidine was escalated in the successive DL. A limited number of oral azacitidine DLs were explored to arrive at a recommended Part 2 dose (RP2D) of oral azacitidine for each study Arm. The RP2D may be the MTD, MAD, or a lower dose depending on the tolerability, PK, and PD observed. Part 1 was followed by expansion cohorts at the RP2D in specific tumor types (Part 2). Approximately 60 subjects were enrolled in Part 1, and approximately 100 subjects were enrolled in Part 2. Safety, efficacy, pharmacokinetics, and pharmacodynamics data were evaluated.
Subjects are evaluated for tumor response after Cycle 2 and every other Cycle thereafter. […]
In one embodiment, in Part 1, Arm C of the study, 5-azacytidine was dosed from Day 1 to Day 21, in a 21-day cycle (continuous). Safety and PD were analyzed. […]

DNA methylation in PBMCs = assay: DNA hypomethylation in PBMCs of patients (summary); type: in vivo, human
Description: as §1

[4] = tested on: DNA methylation (LINE-1 and gene-specific); assay: DNA methylation analysis (LINE-1 or EpiTech Methyl qPCR), MDA-MB-231 xenograft tumors; type: in vivo; details: MDA-MB-231 tumors in mice, 1 or 3 mg/kg AZA ip daily; further reduction with additional days of dosing
Description: as §2

γH2AX = γH2AX western blotting (DNA damage), MDA-MB-231 xenograft tumors; type: in vivo; details: MDA-MB-231 tumor-bearing mice
Description: as §2

[5] = tested on: DNA methylation, hypermethylated loci (beta>0.7); assay: Infinium Methylation27 Array, PBMC DNA of patients; type: in vivo, human; details: patients dosed with 200 mg oral AZA alone (Arm C) or with CBDCA (Arm A) or ABX (Arm B); Days 1, 8, 15 of 21-day cycle
Description: DNA methylation is employed as a biomarker to monitor responses in patients treated with azacitidine in the clinical studies described herein. Analysis is performed with an Infinium Assay (commercially available from Illumina, Inc., San Diego, Calif.). The Infinium Assay combined with BeadChips allows large-scale interrogation of variations in the human genome. For example, the Infinium HumanMethylation27 BeadChip enables interrogation of 27,578 CpG loci, covering over 14,000 genes. […]
The assay for methylation is used to detect methylation status at individual CpG loci by typing bisulfite-converted DNA. […] Blood samples were collected and DNA methylation was analyzed in parallel. In other embodiments, bone marrow samples are collected and DNA methylation analyzed in parallel.
In one embodiment, PBMC DNA was used for assessing changes in DNA methylation, using assays such as LINE-1 methylation, %5mdC mass spec, Infinium® Methylation27 Array, and Infinium® Methylation450 Array. In one study, DNA methylation (LINE-1) in PBMC DNAs from patients in clinical studies described in Example 1, dosed with 200 mg oral AZA alone or in combination with CDBCA or ABX, was measured on Days 1, 8, and 15 of 21-day cycle. […]

[6] = tested on: DNA methylation (LINE-1 and gene-specific); assay: DNA methylation analysis (LINE-1 or EpiTech Methyl qPCR), MDA-MB-231 cells in vitro; type: cell-based
Description: as §2

[7] = tested on: Ninety-two cancer cell lines; assay: In vitro modeling of clinical dosing schema, AZA with CBDCA or ABX, cancer cell line panel; type: cell-based; details: other experiments; some cell lines
Description: DNA hypomethylation (e.g., LINE-1, p16) was measured 72 hours after AZA treatment alone or in combination with CBDCA or ABX. p16 (mRNA) re-expression was determined 72 hours after AZA treatment alone or in combination with CBDCA or ABX. Ninety-two cancer cell lines were tested in order to identify specific tumor types that become sensitized to CBDCA or ABX after treatment with AZA (bladder cancer n=8; head and neck cancer n=8, breast cancer n=21; lung cancer n=35; pancreatic cancer n=7; ovarian cancer n=7; and melanoma n=6).

SMILES	Survival and time to AML transformation or death (higher-risk MDS)	DNA methylation (LINE-1) in PBMC DNAs (LINE-1 methylation)	Time for DNMT1 protein levels to return to basal levels after AZA treatment was halted (DNMT1 [1]; MDA-MB-231 cells in vitro) [days]	DNMT1 protein level (DNMT1 [1]; MDA-MB-231 cells treated daily with 0.1 or 0.3 μM AZA for up to 12 days)	Time to DNMT1 protein depletion post in vivo dose (DNMT1 [2]; MDA-MB-231 tumor-bearing mice, 1 or 3 mg/kg AZA ip) [h]	DNMT1 protein level (DNMT1 [2]; MDA-MB-231 tumor-bearing mice, 1 or 3 mg/kg AZA ip daily)	Time for DNMT1 protein levels to return to basal levels after AZA treatment was halted (DNMT1 [2]; MDA-MB-231 tumors in mice) [days]	AUC(0-inf) [3] [ng·h/mL]	Time on Study (Nasopharyngeal cancer; AZA dose 300 mg single agent, nasopharyngeal patient) [mo]	Tumor response (Nasopharyngeal cancer; 5-azacytidine 300 mg Day 1 to Day 21, 21-day cycle, nasopharyngeal cancer)	Patients with DNA hypomethylation in PBMCs / patients analyzed (DNA methylation in PBMCs; 200 mg oral AZA alone (Arm C) or with ABX (Arm B) or CBDCA (Arm A))	Patients with DNA hypomethylation in PBMCs / patients analyzed (DNA methylation in PBMCs; 300 mg oral AZA alone (Arm C) or with CBDCA (Arm A))	DNA methylation (LINE-1 and gene-specific) [4]	Days of dosing until DNA damage was observed in tumors (γH2AX; 1 mg/kg AZA ip daily) [days]	Days of dosing until DNA damage was observed in tumors (γH2AX; 3 mg/kg AZA ip daily) [days]	DNA methylation in PBMCs upon treatment (hypermethylated loci, beta>0.7) [5]	Time for DNA methylation to return to basal levels upon AZA removal ([6]; MDA-MB-231 cells in vitro) [days]	DNA methylation (LINE-1 and gene-specific) ([6]; MDA-MB-231 cells, 0.1 or 0.3 μM AZA daily, further reduction with additional days of dosing)	Interaction of DAC (decitabine) priming with ABX [7]	Interaction of DAC (decitabine) priming with CBDCA [7]
Nc1ncn([C@@H]2O[C@H](CO)[C@@H](O)[C@H]2O)c(=O)n1 [AZA, 4-amino-1-β-D-ribofuranosyl-1,3,5-triazin-2(1H)-one]	significantly prolonged survival	Decreases in LINE-1 methylation were observed for two patients	3 to 4	dose-dependent depletion	≤ 8	dose-dependent depletion	3 to 4	> 350	>3	Partial responses	5/6	3/3	dose-dependent decrease	21	14	decreases in hypermethylated loci	≤ 8	dose-dependent decrease		
Nc1ncn([C@H]2C[C@H](O)[C@@H](CO)O2)c(=O)n1 [DAC, 5-aza-2′-deoxycytidine]																			antagonism	additivity or synergy
